Here are results for 32 compounds from patent US9000028B2, “Indole and indazole compounds as an inhibitor of cellular necrosis” (LG Life Sciences Ltd., priority 2007, dated 2015).

Each structure is given as a SMILES string. Like-named read-outs stand apart in the source and are kept apart here. A value given as a limit tells only on which side of the number the result lay.

The data set concerns primary hepatocytes isolated from rats. The experiment in a line: Hepatocyte protective effect against substances deriving hepatocyte toxicity (WST-1 viability). The class given is cell-based. Conditions: for EC50: 24-48 h. How it is done:
Various endogenous/exogenous attacks on the cells trigger the mechanisms of cell death which is broadly classified into two types, i.e. apoptosis or necrosis. Using these cell death mechanisms, in the present experimental example, primary hepatocytes isolated from rats were treated with drugs which were clinically shown to result in serious side-effects of hepatocyte toxicity or various chemicals which derive cell death, and the compounds synthesized in the Examples were estimated for their hepatocyte protective effects, after 24-48 h. The substances used to derive hepatocyte death include CCl4, ActD, H2O2, doxorubicin, anti-Fas Ab/Actinomycin D, acetaminophen, EtOH, CdCl2, palmitate, stearate, cyclophosphamide, terfenadine, diclofenac, simvastatin, and adefovir. Primary hepatocytes were isolated using the method of Seglen PO (Experimental Cell Research 74 (1972) pp 450-454). Briefly, hepatocytes were isolated according to the two-step collagenase perfusion method, and dead cells were removed by low speed (500 rpm) centrifugation for 10 min using percoll gradient (Kreamer B L etc, In Vitro Cellular & Developmental Biology 22 (1986) pp 201-211). During this step, the viability of cells was maintained 90% or above. The cells were suspended in HepatoZYME media (Gibco BRL), and the number of cells was counted. 1.5×10^4 cells in 100 μl were placed into the collagen-coated 96-well plate (BD biocoat), and adhered on the bottom for 3-4 h.
In order to assess the hepatocyte protective effect, above adhered cells were pretreated with the Example compounds for 30 min. At this time, the concentration of the Example compounds were serially diluted by 2-fold or 3-fold over 5 steps starting from 30 uM, 10 uM or 1 uM depending on the experiments, and the final concentration of DMSO was adjusted to 0.2%. 30 min after the treatment by compounds, cells were treated by the substances deriving hepatocyte death or hepatotoxic drugs at the concentrations indicated in Table 1. After 24-48 h, the viability of cells was determined to estimate the hepatocyte protective effects. The viability of cells was determined using WST-1 (MK-400, […]) method by the absorbance at 440 nm. Hepatocyte protective effects of the Example compounds were represented by “EC50,” which was calculated from measured values. “EC50” herein means the concentration of the compound at which 50% of maximum protective effect is observed in the experiment.
In general terms: Tetrazolium dyes change colour on reduction, which living cells bring about.

The mark [1] stands for this setting: Rattus norvegicus, Hepatocyte, doxorubicin, read-out: EC50, cell protective effects against doxorubicin in hepatocytes.
The mark [2] stands for this setting: doxorubicin, rat primary hepatocytes, read-out: EC50, cell protective effects against doxorubicin in hepatocytes.

Regarding `Cc1cc(NC2CCCC2)c2[nH]c(-c3ccccn3)cc2c1` [Example 1, Cyclopentyl-[5-methyl-2-(pyridin-2-yl)-1H-indol-7-yl]-amine], under setting [1], the EC50 stood at 100 nM.

Take `c1cc(NC2CCCC2)c2[nH]c(-c3cnccn3)cc2c1` [Example 5, Cyclopentyl-[2-(pyrazin-2-yl)-1H-indol-7-yl]-amine]: the EC50 under setting [1] is 500 nM.

For the compound `Cc1cc(NC2CCCC2)c2[nH]c(-c3cnccn3)cc2c1` [Example 6, Cyclopentyl-[5-methyl-2-(pyrazin-2-yl)-1H-indol-7-yl]-amine], the EC50 under setting [1] was 300 nM.

On to `c1ccc(-c2cc3cccc(NC4CCCC4)c3[nH]2)nc1` [Example 7, Cyclopentyl-[2-(pyridin-2-yl)-1H-indol-7-yl]amine], for which the EC50 under setting [1] came out at 500 nM.

Consider `c1ccc(-c2cc3cccc(NC4CCOCC4)c3[nH]2)nc1` [Example 8, (Tetrahydropyran-4-yl)-[2-(pyridin-2-yl)-1H-indol-7-yl]-amine], for which the EC50 under setting [1] is 2500 nM.

Take `c1ccc(Oc2cc(NC3CCCC3)c3[nH]c(-c4ccccn4)cc3c2)cc1` [Example 9, Cyclopentyl-[5-phenoxy-2-(pyridin-2-yl)-1H-indol-7-yl]-amine]: the EC50 under setting [1] is 200 nM.

Consider `CCOc1cc(NC2CCCC2)c2[nH]c(-c3ccccn3)cc2c1` [Example 10, Cyclopentyl-[5-ethoxy-2-(pyridin-2-yl)-1H-indol-7-yl]-amine], for which the EC50 under setting [1] came to 200 nM.

`Cc1cc(NC2CCCCC2)c2[nH]c(-c3ccccn3)cc2c1` [Example 11, Cyclohexyl-[5-methyl-2-(pyridin-2-yl)-1H-indol-7-yl]-amine]: under setting [1], the EC50 came to 100 nM.

As for `CC(=O)N1CCC(Nc2cc(C)cc3cc(-c4ccccn4)[nH]c23)CC1` [Example 12, 1-[4-[(5-Methyl-2-(pyridin-2-yl)-1H-indol-7-yl)-amino]piperidin-1-yl]ethanone], the EC50 under setting [1] was 400 nM.

Consider `Cc1cc(NC2CCN(C)CC2)c2[nH]c(-c3ccccn3)cc2c1` [Example 13, (1-Methylpiperidin-4-yl)-[5-methyl-2-(pyridin-2-yl)-1H-indol-7-yl]-amine], for which the half-maximal effective concentration (EC50) under setting [1] was 400 nM.

Consider `Cc1cc(NC2CCN(Cc3ccccc3)C2)c2[nH]c(-c3ccccn3)cc2c1` (stereo not shown) [Example 14, (1-Benzylpyrrolidin-3-yl)[5-methyl-2-(pyridin-2-yl)-1H-indol-7-yl]-amine], for which the EC50 under setting [1] was 300 nM.

In the case of `Cc1cc(NCC2CCCC2)c2[nH]c(-c3ccccn3)cc2c1` [Example 15, Cyclopentylmethyl-[5-methyl-2-(pyridin-2-yl)-1H-indol-7-yl]-amine], the EC50 under setting [1] came out at 100 nM.

In the case of `Cc1cc(N(C)C)c2[nH]c(-c3ccccn3)cc2c1` [Example 17, Dimethyl-[5-methyl-2-(pyridin-2-yl)-1H-indol-7-yl]-amine], under setting [1], the EC50 was 540 nM.

For `Cc1cc(NC2CCCC2)c2[nH]c(-c3cccc(C)n3)cc2c1` [Example 19, Cyclopentyl-[5-methyl-2-(6-methylpyridin-2-yl)-1H-indol-7-yl]-amine], under setting [1], the EC50 came to 70 nM.

As to `Cc1cc(NC2CCC(=O)CC2)c2[nH]c(-c3ccccn3)cc2c1` [Example 20, (1-Cyclohexanon-4-yl)-[5-methyl-2-(pyridin-2-yl)-1H-indol-7-yl]-amine], the EC50 under setting [1] was 300 nM.

As for `O=C1CCC(Nc2cc(Cl)cc3cc(-c4ccccc4)[nH]c23)CC1` [Example 21, 4-[(5-Chloro-2-phenyl-1H-indol-7-yl)amino]-cyclohexan-1-one], under setting [1], the EC50 is 40 nM.

For the compound `Cc1cc(NC(=O)Nc2ccccc2)c2[nH]c(-c3ccccn3)cc2c1` [Example 24, 1-Phenyl-3-[5-methyl-2-(pyridin-2-yl)-1H-indol-7-yl]-urea], the EC50 under setting [1] worked out at 900 nM.

Take `Cc1cc(N(C)C2CCCC2)c2[nH]c(-c3ccccn3)cc2c1` [Example 27, Cyclopentyl-methyl-[5-methyl-2-(pyridin-2-yl)-1H-indol-7-yl]-amine]: the EC50 under setting [1] is 2400 nM.

As to `CCOC(=O)c1cc(NC2CCCC2)c2[nH]c(-c3ccccc3)cc2c1` [Example 28, 7-(Cyclopentyl)amino-2-phenyl-1H-indole-5-carboxylic acid ethyl ester], under setting [1], the EC50 was determined as 170 nM.

As to `OCc1cc(NC2CCCC2)c2[nH]c(-c3ccccc3)cc2c1` [Example 29, Cyclopentyl-[5-hydroxymethyl-2-phenyl-1H-indol-7-yl]-amine], the EC50 under setting [1] turned out to be 70 nM.

As for `O=C(O)c1cc(NC2CCCC2)c2[nH]c(-c3ccccc3)cc2c1` [Example 30, 7-(Cyclopentyl)amino-2-phenyl-1H-indole-5-carboxylic acid], under setting [1], the EC50 came out at 140 nM.

For the compound `CCOC(=O)Cc1cc(NC2CCCC2)c2[nH]c(-c3ccccc3)cc2c1` [Example 31, 2-[7-(Cyclopentyl)amino-2-phenyl-1H-indol-5-yl]-acetic acid ethyl ester], the EC50 under setting [1] worked out at 160 nM.

On to `OCCc1cc(NC2CCCC2)c2[nH]c(-c3ccccc3)cc2c1` [Example 32, 2-[7-(Cyclopentylamino)-2-phenyl-1H-indol-5-yl]ethanol], for which, under setting [1], the EC50 was 130 nM.

On to `O=C(O)Cc1cc(NC2CCCC2)c2[nH]c(-c3ccccc3)cc2c1` [Example 33, 2-[7-(Cyclopentyl)amino-2-phenyl-1H-indol-5-yl]acetic acid], for which the EC50 under setting [1] turned out to be 150 nM.

As to `O=C(O)Cc1cc(NC2CCOCC2)c2[nH]c(-c3ccccc3)cc2c1` [Example 34, 2-[2-Phenyl-7-(tetrahydropyran-4-yl)amino-1H-indol-5-yl]-acetic acid], the half-maximal effective concentration (EC50) under setting [1] is more than 2000 nM.

On to `O=C(O)Cc1cc(NC2CCS(=O)(=O)CC2)c2[nH]c(-c3ccccc3)cc2c1` [Example 35, 2-[2-Phenyl-7-(1,1-dioxo-tetrahydro-thiopyran-4-yl)amino-1H-indol-5-yl]-acetic acid], for which, under setting [1], the EC50 was 630 nM.

`O=S1(=O)CCN(Cc2cc(NC3CCOCC3)c3[nH]c(-c4ccccc4)cc3c2)CC1` [Example 36, (Tetrahydropyran-4-yl)[2-phenyl-5-(1,1-dioxo-thiomorpholin-4-yl)methyl-1H-indol-7-yl]amine]: under setting [1], the EC50 was found to be 63 nM.

Regarding `O=C1CN(Cc2cc(NC3CCCC3)c3[nH]c(-c4cccc(F)c4)cc3c2)CCN1` [Example 38, Cyclopentyl-[2-(3-fluoro)phenyl-5-(2-oxo-piperazin-4-yl)methyl-1H-indol-7-yl]amine], the EC50 under setting [2] turned out to be 110 nM.

With `COc1ccc(-c2cc3cc(CN4CCS(=O)(=O)CC4)cc(NC4CCOCC4)c3[nH]2)cc1` [Example 39, (Tetrahydropyran-4-yl)-[2-(4-methoxy)phenyl-5-(1,1-dioxo-thiomorpholin-4-yl)methyl-1H-indol-7-yl]amine], the EC50 under setting [2] is 330 nM.

Take `Cc1cc(NC2CCCC2)c2[nH]c(-c3ccccc3)c(C)c2c1` [Example 40, Cyclopentyl-[3,5-dimethyl-2-phenyl-1H-indol-7-yl]-amine]: under setting [1], the half-maximal effective concentration (EC50) worked out at 200 nM.

As to `Cc1cc(NC2CCOCC2)c2[nH]c(-c3ccccc3)cc2c1` [Example 41, (Tetrahydropyran-4-yl)-(5-methyl-2-phenyl-1H-indol-7-yl)-amine], the EC50 is 170 nM (Rattus norvegicus, Hepatocyte, Actinomycin D 100 ng/mL, read-out: EC50, protective effect against the substances deriving hepatotoxicity); less than 600 nM (Rattus norvegicus, Hepatocyte, Anti-Fas Ab 1 ug/mL / Actinomycin D 5 ng/mL, read-out: EC50, protective effect against the substances deriving hepatotoxicity); 800 nM (Rattus norvegicus, Hepatocyte, CCl4 10 mM, read-out: EC50, protective effect against the substances deriving hepatotoxicity); 1900 nM (Rattus norvegicus, Hepatocyte, CdCl2 1 uM, read-out: EC50, protective effect against the substances deriving hepatotoxicity); less than 200 nM (Rattus norvegicus, Hepatocyte, Cyclophosphamide 3 mM, read-out: EC50, protective effect against the substances deriving hepatotoxicity); 60 nM (Rattus norvegicus, Hepatocyte, Doxorubicin 5 uM, read-out: EC50, protective effect against the substances deriving hepatotoxicity). In addition, the EC50 by setting is: (Rattus norvegicus, Hepatocyte, EtOH 2.5%, read-out: EC50, protective effect against the substances deriving hepatotoxicity) 9000 nM; (Rattus norvegicus, Hepatocyte, H2O2 10 mM, read-out: EC50, protective effect against the substances deriving hepatotoxicity) 800 nM; (Rattus norvegicus, Hepatocyte, Palmitic acid 700 uM, read-out: EC50, protective effect against the substances deriving hepatotoxicity) less than 600 nM; (Rattus norvegicus, Hepatocyte, Stearic acid 700 uM, read-out: EC50, protective effect against the substances deriving hepatotoxicity) less than 600 nM; under setting [1], 60 nM. Further, where the note is “Tacrine 0.5 mM, compound at 3-100 uM, rat primary hepatocytes”, the “viability at 3-100 uM” value stood at 50%.

Turning to `Cc1cc(NCC2CCCC2)c2[nH]c(-c3ccccc3)cc2c1` [Example 42, Cyclopentylmethyl-(5-methyl-2-phenyl-1H-indol-7-yl)-amine], under setting [1], the EC50 worked out at 40 nM.

As a reminder, the EC50 is the concentration giving half of the maximal effect. Usually viability stands for a read-out of living cells in per cent, often relative to untreated cells.
